Results: patent US20240166609A1, “ANTIBACTERIAL COMPOUNDS” (BLACKSMITH MEDICINES, INC., priority 2021, published 2024)
In brackets after ≈: the same amount, converted by molar mass.

Assays:
P. aeruginosa LpxC = molecular target: T1, P. aeruginosa LpxC (Pseudomonas aeruginosa, UniProt P47205); test: LpxC Binding Assay (Rapid Fire MS assay); assay type: biochemical
T1 sequence (P47205 1-303): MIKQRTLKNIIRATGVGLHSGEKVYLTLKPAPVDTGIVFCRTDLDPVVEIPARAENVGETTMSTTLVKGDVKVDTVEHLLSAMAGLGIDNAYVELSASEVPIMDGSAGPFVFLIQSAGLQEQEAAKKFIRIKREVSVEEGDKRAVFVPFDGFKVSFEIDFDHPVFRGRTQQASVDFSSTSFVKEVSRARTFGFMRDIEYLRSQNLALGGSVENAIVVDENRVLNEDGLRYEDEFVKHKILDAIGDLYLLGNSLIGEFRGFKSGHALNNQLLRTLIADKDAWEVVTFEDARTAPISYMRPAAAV
Experimental: (§1) IC50 values against E. coli and P. aeruginosa LpxC are determined using a Rapid Fire MS assay as previously described J. Med. Chem. 2012, 55, 1662-1670.

E. coli LpxC = molecular target: T2, E. coli LpxC (Escherichia coli, UniProt P0A725); test: LpxC Binding Assay (Rapid Fire MS assay); assay type: biochemical
T2 sequence (P0A725 1-305): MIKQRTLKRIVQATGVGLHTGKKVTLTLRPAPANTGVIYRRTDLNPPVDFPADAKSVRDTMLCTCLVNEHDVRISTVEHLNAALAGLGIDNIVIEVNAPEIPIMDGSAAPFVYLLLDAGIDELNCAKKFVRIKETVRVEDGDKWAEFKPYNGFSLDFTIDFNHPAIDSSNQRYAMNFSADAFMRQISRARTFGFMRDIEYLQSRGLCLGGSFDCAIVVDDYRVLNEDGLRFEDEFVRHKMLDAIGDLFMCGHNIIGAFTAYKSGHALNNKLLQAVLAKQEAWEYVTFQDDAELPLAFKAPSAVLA
Experimental: as §1

P. aeruginosa 209 PAO1 = test: Bacterial susceptibility testing, MIC by broth microdilution (CLSI); assay type: cell-based; details: Pseudomonas aeruginosa, 35° C., 18-24 h, read-out: MIC (μg/mL) P. aeruginosa 209 PAO1
Experimental: (§2) Minimal inhibitory concentrations (MIC) were determined by the broth microdilution method in accordance with the Clinical and Laboratory Standards Institute (CLSI) guidelines. In brief, organism suspensions were adjusted to a final inoculum between 3×10^5 and 7×10^5 colony-forming units (CFU)/mL. Drug dilutions and inocula were made in sterile, cation adjusted Mueller-Hinton Broth (Beckton Dickinson). In wells, an inoculum volume of 100 μL was mixed to 2 μL of DMSO with 2-fold serial dilutions of drug. All inoculated microdilution trays were incubated in ambient air at 35° C. for 18-24 h. Following incubation, the lowest concentration of the drug that prevented visible growth (OD600 nm<0.05) was recorded as the MIC. Performance of the assay was monitored by the use of laboratory quality-control strains and compounds with defined MIC spectrum, in accordance with CLSI guidelines

P. aeruginosa ATCC27835 = test: as above; assay type: cell-based; details: Pseudomonas aeruginosa, 35° C., 18-24 h, read-out: MIC (μg/mL) P. aeruginosa ATCC27835
Experimental: as §2

K. pneumoniae ATCC13883 = test: as above; assay type: cell-based; details: Klebsiella pneumoniae, 35° C., 18-24 h, read-out: MIC (μg/mL) K. pneumoniae ATCC13883
Experimental: as §2

E. coli ATCC25922 = test: as above; assay type: cell-based; details: Escherichia coli, 35° C., 18-24 h, read-out: MIC (μg/mL) E. coli ATCC25922
Experimental: as §2

K. pneumoniae LpxC = K. pneumoniae LpxC (Klebsiella pneumoniae subsp. pneumoniae, UniProt A6T4N9); test: LpxC Binding Assay (Rapid Fire MS assay); assay type: biochemical
Sequence of K. pneumoniae LpxC (A6T4N9 whole entry): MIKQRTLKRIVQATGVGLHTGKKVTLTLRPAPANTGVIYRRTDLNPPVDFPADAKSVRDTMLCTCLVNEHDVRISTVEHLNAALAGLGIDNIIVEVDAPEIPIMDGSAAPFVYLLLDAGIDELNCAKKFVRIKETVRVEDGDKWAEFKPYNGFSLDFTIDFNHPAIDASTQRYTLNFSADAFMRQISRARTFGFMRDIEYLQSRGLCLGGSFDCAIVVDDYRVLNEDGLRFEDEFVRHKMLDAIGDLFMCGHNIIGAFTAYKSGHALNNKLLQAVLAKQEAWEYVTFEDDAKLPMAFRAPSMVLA

Compound | IC50 (P. aeruginosa LpxC) | IC50 (E. coli LpxC) | MIC (P. aeruginosa 209 PAO1) | MIC (P. aeruginosa ATCC27835) | MIC (K. pneumoniae ATCC13883) | MIC (E. coli ATCC25922) | IC50 (K. pneumoniae LpxC)
C[C@H](O)c1nccn1CC#Cc1ccc(-c2ccc(OCC(N)CO)cc2)cc1 (mixture of isomers) [Compound 7, 2-amino-3-((4′-(3-(2-((S)-1-hydroxyethyl)-1H-imidazol-1-yl)prop-1-yn-1-yl)-[1,1′-biphenyl]-4-yl)oxy)propan-1-ol] | 25.5 nM | 13.6 nM | 2 µg/mL (≈ 5.11 µM) | 2 µg/mL (≈ 5.11 µM) | 4 µg/mL (≈ 10.2 µM) | 2 µg/mL (≈ 5.11 µM) | 
C[C@H](O)c1nccn1[C@@H](C#Cc1ccc(-c2ccc(CO[C@@H]3C[C@H]3N)cc2)cc1)CO (racemic) [Compound 9, (S)-4-(4′-(((trans)-2-aminocyclopropoxy)methyl)-[1,1′-biphenyl]-4-yl)-2-(2-((S)-1-hydroxyethyl)-1H-imidazol-1-yl)but-3-yn-1-ol] | 47.7 nM | 1.8 nM | 2 µg/mL (≈ 4.79 µM) | 4 µg/mL (≈ 9.58 µM) | 4 µg/mL (≈ 9.58 µM) |  | 3.9 nM
C[C@H](O)c1nccn1[C@@H](C#Cc1ccc(-c2ccc(O[C@@H]3C[C@H]3NCCF)cc2)cc1)CO (racemic) [Compound 12, (S)-4-(4′-((trans)-2-((2-fluoroethyl)amino)cyclopropoxy)-[1,1′-biphenyl]-4-yl)-2-(2-((S)-1-hydroxyethyl)-1H-imidazol-1-yl)but-3-yn-1-ol] | 6 nM | < 0.5 nM | 2 µg/mL (≈ 4.45 µM) | 4 µg/mL (≈ 8.9 µM) | 2 µg/mL (≈ 4.45 µM) |  | 1.1 nM
C[C@H](O)c1nccn1[C@@H](C#Cc1ccc(-c2ccc(OCC3COCCO3)cc2)cc1)CO (mixture of isomers) [Compound 13, (2S)-4-(4′-((1,4-dioxan-2-yl)methoxy)-[1,1′-biphenyl]-4-yl)-2-(2-((S)-1-hydroxyethyl)-1H-imidazol-1-yl)but-3-yn-1-ol] | 5.5 nM | < 0.5 nM | 2 µg/mL (≈ 4.46 µM) | 4 µg/mL (≈ 8.92 µM) | 1 µg/mL (≈ 2.23 µM) |  | 0.9 nM
C[C@H](O)c1nccn1[C@@H](C#Cc1ccc(-c2ccc(OCC(C)(O)CO)cc2)cc1)CO (mixture of isomers) [Compound 16, 3-((4′-((S)-4-hydroxy-3-(2-((S)-1-hydroxyethyl)-1H-imidazol-1-yl)but-1-yn-1-yl)-[1,1′-biphenyl]-4-yl)oxy)-2-methylpropane-1,2-diol] | 8.3 nM | 1.3 nM | 2 µg/mL (≈ 4.58 µM) | 4 µg/mL (≈ 9.16 µM) | 4 µg/mL (≈ 9.16 µM) |  | 2.2 nM
C[C@H](O)c1nccn1[C@@H](C#Cc1ccc(-c2ccc(OCCC(O)CO)cc2)cc1)CO (mixture of isomers) [Compound 17, 4-((4′-((S)-4-hydroxy-3-(2-((S)-1-hydroxyethyl)-1H-imidazol-1-yl)but-1-yn-1-yl)-[1,1′-biphenyl]-4-yl)oxy)butane-1,2-diol] | 6.6 nM | 0.5 nM | 1 µg/mL (≈ 2.29 µM) | 2 µg/mL (≈ 4.58 µM) | 2 µg/mL (≈ 4.58 µM) |  | 1 nM
C[C@H](O)c1nccn1[C@@H](C#Cc1ccc(-c2ccc(OC(CO)CCO)cc2)cc1)CO (mixture of isomers) [Compound 22, 2-((4′-((S)-4-hydroxy-3-(2-((S)-1-hydroxyethyl)-1H-imidazol-1-yl)but-1-yn-1-yl)-[1,1′-biphenyl]-4-yl)oxy)butane-1,4-diol] | 8 nM | 0.8 nM | 1 µg/mL (≈ 2.29 µM) | 4 µg/mL (≈ 9.16 µM) | 4 µg/mL (≈ 9.16 µM) |  | 1.5 nM
CC(CNC1CC(c2ccc(-c3ccc(C#C[C@@H](CO)n4ccnc4[C@H](C)O)cc3)cc2)C1)C(=O)O (stereo partly drawn) [Compound 37, 3-((3-(4′-((S)-4-hydroxy-3-(2-((S)-1-hydroxyethyl)-1H-imidazol-1-yl)but-1-yn-1-yl)-[1,1′-biphenyl]-4-yl)cyclobutyl)amino)-2-methylpropanoic acid] |  |  | 4 µg/mL (≈ 8.2 µM) | 4 µg/mL (≈ 8.2 µM) | 8 µg/mL (≈ 16.4 µM) | 2 µg/mL (≈ 4.1 µM) | 
C[C@H](O)c1nccn1[C@@H](C#Cc1ccc(-c2ccc(C3CC(N[C@H]4COC[C@@H]4O)C3)cc2)cc1)CO (stereo partly drawn) [Compound 38, (3R,4S)-4-((3-(4′-((S)-4-hydroxy-3-(2-((S)-1-hydroxyethyl)-1H-imidazol-1-yl)but-1-yn-1-yl)-[1,1′-biphenyl]-4-yl)cyclobutyl)amino)tetrahydrofuran-3-ol] |  |  | 4 µg/mL (≈ 8.2 µM) | 4 µg/mL (≈ 8.2 µM) | 8 µg/mL (≈ 16.4 µM) | 2 µg/mL (≈ 4.1 µM) | 
C[C@H](O)c1nccn1[C@@H](C#Cc1ccc(-c2ccc(C3CC(NC4C(O)OC(CO)C(O)C4O)C3)cc2)cc1)CO (stereo partly drawn) [Compound 39, 3-((3-(4′-((S)-4-hydroxy-3-(2-((S)-1-hydroxyethyl)-1H-imidazol-1-yl)but-1-yn-1-yl)-[1,1′-biphenyl]-4-yl)cyclobutyl)amino)-6-(hydroxymethyl)tetrahydro-2H-pyran-2,4,5-triol] |  |  | 4 µg/mL (≈ 7.1 µM) | 8 µg/mL (≈ 14.2 µM) | 32 µg/mL (≈ 56.8 µM) | 8 µg/mL (≈ 14.2 µM) | 
C[C@H](O)c1nccn1[C@@H](C#Cc1ccc(-c2ccc(C3CC(NC(=O)CC#N)C3)cc2)cc1)CO (stereo partly drawn) [Compound 40, 2-cyano-N-(3-(4′-((S)-4-hydroxy-3-(2-((S)-1-hydroxyethyl)-1H-imidazol-1-yl)but-1-yn-1-yl)-[1,1′-biphenyl]-4-yl)cyclobutyl)acetamide] |  |  | 4 µg/mL (≈ 8.54 µM) | 2 µg/mL (≈ 4.27 µM) | 2 µg/mL (≈ 4.27 µM) | 0.5 µg/mL (≈ 1.07 µM) | 
C[C@H](O)c1nccn1[C@@H](C#Cc1ccc(-c2ccc(C[C@@H]3COC[C@H]3O)cc2)cc1)CO [Compound 41, (3S,4R)-4-((4′-((S)-4-hydroxy-3-(2-((S)-1-hydroxyethyl)-1H-imidazol-1-yl)but-1-yn-1-yl)-[1,1′-biphenyl]-4-yl)methyl)tetrahydrofuran-3-ol] |  |  | 4 µg/mL (≈ 9.25 µM) | 2 µg/mL (≈ 4.62 µM) | 2 µg/mL (≈ 4.62 µM) | 0.5 µg/mL (≈ 1.16 µM) | 
C[C@H](O)c1nccn1CC#Cc1ccc(-c2ccc(O[C@@H]3COC[C@H]3O)cc2)cc1 [Compound 42, (3R,4R)-4-((4′-(3-(2-((S)-1-hydroxyethyl)-1H-imidazol-1-yl)prop-1-yn-1-yl)-[1,1′-biphenyl]-4-yl)oxy)tetrahydrofuran-3-ol] |  |  | 2 µg/mL (≈ 4.94 µM) | 2 µg/mL (≈ 4.94 µM) | 0.5 µg/mL (≈ 1.24 µM) | 0.5 µg/mL (≈ 1.24 µM) | 
C[C@H](O)c1nccn1[C@@H](C#Cc1ccc(-c2ccc(O[C@@H]3COC[C@H]3O)cc2)cc1)CCO [Compound 43, (3R,4R)-4-((4′-((R)-5-hydroxy-3-(2-((S)-1-hydroxyethyl)-1H-imidazol-1-yl)pent-1-yn-1-yl)-[1,1′-biphenyl]-4-yl)oxy)tetrahydrofuran-3-ol] |  |  | 4 µg/mL (≈ 8.92 µM) | 2 µg/mL (≈ 4.46 µM) | 2 µg/mL (≈ 4.46 µM) | 1 µg/mL (≈ 2.23 µM) | 
COCCN1C[C@@H](O)[C@H](Oc2ccc(-c3ccc(C#C[C@@H](CO)n4ccnc4[C@H](C)O)cc3)cc2)C1 [Compound 44, (3R,4R)-4-((4′-((S)-4-hydroxy-3-(2-((S)-1-hydroxyethyl)-1H-imidazol-1-yl)but-1-yn-1-yl)-[1,1′-biphenyl]-4-yl)oxy)-1-(2-methoxyethyl)pyrrolidin-3-ol] |  |  | 4 µg/mL (≈ 8.14 µM) | 4 µg/mL (≈ 8.14 µM) | 4 µg/mL (≈ 8.14 µM) | 2 µg/mL (≈ 4.07 µM) | 
C[C@H](O)c1nccn1[C@@H](C#Cc1ccc(-c2ccc(O[C@@H]3CN(CC#N)C[C@H]3O)cc2)cc1)CO [Compound 45, 2-((3R,4R)-3-hydroxy-4-((4′-((S)-4-hydroxy-3-(2-((S)-1-hydroxyethyl)-1H-imidazol-1-yl)but-1-yn-1-yl)-[1,1′-biphenyl]-4-yl)oxy)pyrrolidin-1-yl)acetonitrile] |  |  | 2 µg/mL (≈ 4.23 µM) | 2 µg/mL (≈ 4.23 µM) | 8 µg/mL (≈ 16.9 µM) | 16 µg/mL (≈ 33.9 µM) | 
